In PMC12670164, “In vitro and clinical data demonstrate negligible risk of drug–drug interactions with opelconazole, a novel inhaled antifungal agent” (Journal of Antimicrobial Chemotherapy, 2025):

Key:
CYP3A4 = CYP3A4 (Homo sapiens, UniProt P08684); test: clinical
Description: The study documents were approved by an Independent Ethics Committee. Study participants provided written informed consent prior to any study procedures.
Screening occurred within 28 days prior to the first dosing day (Figure 1). […] On Days 1 and 15, participants received oral midazolam 7.5 mg and oral caffeine 180 mg together after food ingestion.
Morning doses of opelconazole on Day 2 and Day 15 were taken 30 min after food ingestion.
Primary PK parameters assessed for midazolam and its metabolites (1-OH-midazolam, 4-OH-midazolam), caffeine and opelconazole were Cmax and AUC, from time zero to t, where t is the time of the last quantifiable concentration (AUC(0−t); i.e., AUC(0−12) and AUC(0−24)). Secondary PK parameters were AUC(0−∞), Tmax, apparent t1/2 and accumulation ratio (RO) of opelconazole only.
For caffeine, midazolam and the metabolites of midazolam, the geometric mean ratio (GMR) of Day 15 estimates to those obtained on Day 1 was derived by fitting a linear mixed effect model with the log of the parameter as the response, visit as the fixed effect, and participant as the random effect.

CYP1A2 [1] = test: clinical; details: both, human, plasma, po, 180 mg, probe caffeine
Description: To adjust for any residual caffeine in plasma samples, the estimated contribution of residual, pre-dose caffeine was subtracted from the measured caffeine concentration to produce an ‘adjusted concentration.’ Residual caffeine concentrations were estimated from the baseline concentration and the measured elimination rate in individual participants.

CYP1A2 [2] = test: CYP induction, mRNA endpoint, cryopreserved human hepatocytes; details: human, 72 h
Description: The potential for opelconazole to act as an inducer of CYP isoforms CYP1A2, CYP2B6 and CYP3A4 was assessed in vitro using an mRNA endpoint across three donors in cryopreserved human hepatocytes. A drug is interpreted as an inducer if: (1) it increases mRNA expression of a CYP enzyme in a concentration-dependent manner and (2) the fold change of CYP mRNA expression relative to vehicle control is ≥2-fold at the drug’s expected hepatic concentrations.[23]
A cytotoxicity assessment using MTT was performed in one of the three donors used for the induction studies prior to dosing.

[3] = Day 1, oral midazolam 7.5 mg without opelconazole
[4] = Day 15, oral midazolam 7.5 mg after 14 days inhaled opelconazole 14.8 mg twice daily
[5] = both, human, in vivo, po, 7.5 mg

Chain of CYP3A4 (P08684 whole entry): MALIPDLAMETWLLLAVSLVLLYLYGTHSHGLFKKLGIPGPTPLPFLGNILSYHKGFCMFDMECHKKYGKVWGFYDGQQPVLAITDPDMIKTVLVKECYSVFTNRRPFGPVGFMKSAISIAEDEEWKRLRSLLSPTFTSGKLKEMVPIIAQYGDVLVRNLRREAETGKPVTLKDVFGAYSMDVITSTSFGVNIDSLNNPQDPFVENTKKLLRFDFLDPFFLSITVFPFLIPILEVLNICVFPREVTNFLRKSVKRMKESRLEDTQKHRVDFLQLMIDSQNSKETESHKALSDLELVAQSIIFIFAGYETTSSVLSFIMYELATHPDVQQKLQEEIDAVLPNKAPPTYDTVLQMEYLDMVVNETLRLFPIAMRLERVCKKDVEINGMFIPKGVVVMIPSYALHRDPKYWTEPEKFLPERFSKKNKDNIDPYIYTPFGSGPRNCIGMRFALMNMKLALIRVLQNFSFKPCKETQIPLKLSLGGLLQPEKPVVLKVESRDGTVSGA

Row | SMILES | AUC(0–24h), geometric mean (CYP3A4; [3]) [ng·h/mL] | Cmax, geometric mean (CYP3A4; [3]) [ng/mL] | AUC(0–24h), geometric mean (CYP3A4; [4]) [ng·h/mL] | Cmax, geometric mean (CYP3A4; [4]) [ng/mL] | also measured
1 | OCc1ncc2n1-c1ccc(Cl)cc1C(c1ccccc1F)=NC2 [1-OH-Midazolam, 1-OH-midazolam] | 72.8 | 16.7 | 60.9 | 13.4 | 
2 | Cc1ncc2n1-c1ccc(Cl)cc1C(c1ccccc1F)=NC2O (stereo not shown) [4-OH-Midazolam, 4-OH-midazolam] | 8.92 | 1.97 | 8.70 | 1.78 | 
3 | Cn1c(=O)c2c(ncn2C)n(C)c1=O [Caffeine, caffeine] |  |  |  |  | AUC(0-t) (CYP1A2 [1]): 33200 ng·h/mL; Cmax (CYP1A2 [1]): 3280 ng/mL
4 | Cc1ncc2n1-c1ccc(Cl)cc1C(c1ccccc1F)=NC2 [Midazolam, midazolam, reference compound] |  |  |  |  | AUC(0-t) (CYP3A4; [5]): 166 ng·h/mL; Cmax (CYP3A4; [5]): 35.1 ng/mL
5 | COc1ccc2[nH]c([S+]([O-])Cc3ncc(C)c(OC)c3C)nc2c1 (stereo not shown) [omeprazole, reference compound] |  |  |  |  | induction outcome of positive control relative to opelconazole (CYP1A2 [2]): > 30 fold
